US6383772B1, “Enzymatic conversion in a solvent mixture containing water and flourinated, non-chlorinated solvent” (Advanced Phytonic Limited, priority 1997, dated 2002)

What was measured:
[1] = Effect of pH on extraction of PAA from enzymatic liquor with Phytosol D; format: physicochemical; settings: 20 ml enzymatic liquor extracted with 40 ml Phytosol D
Protocol: This example was carried out to assess the efficiency and selectivity of Phytosol D in extracting PAA from the enzymatic liquor at different pH's.
The enzymatic liquor was prepared as described in Example 1 using the enzyme resin from Example C2.
20 ml samples of the liquor were extracted with 40 ml of Phytosol D, at various pH's, using hand held apparatus as follows:
The apparatus consists of a 100 ml graduated glass tube fitted with a filter assembly and a clamping ring which in turn is fitted with a needle valve. The material or solution to be extracted is charged into the tube. The filter is then assembled with the aid of a sealing O ring followed by the clamping ring ensuring that a tight fit is achieved. Phytosol liquid gas is introduced to the glass tube from an aerosol can via the needle valve. The contents of the tube are mixed by vigorous shaking after which the tube is inverted and allowed to stand until the two layers are separated. The Phytosol is then released via the needle valve into an evaporator bottle taking care not to allow any of the aqueous layer to co-discharge.

[2] = Solubility of 6-APA in Phytosol solvent; format: physicochemical
[3] = background statement; cited from earlier work

SMILES	Removed (% of total w/w) ([1]; pH 1.4)	Removed (% of total w/w) ([1]; pH 3.8)	Removed (% of total w/w) ([1]; pH 5.3)	Removed (% of total w/w) ([1]; pH 6.5)	Removed (% of total w/w) ([1]; pH 8.0)	solubility in the solvent [2]	solubility in water [3]
O=C(O)Cc1ccccc1 [PAA, Phenylacetic acid]	>99 % of total w/w	>99 % of total w/w	6.5 % of total w/w	<2 % of total w/w	0 % of total w/w	–	–
CC1(C)S[C@@H]2[C@H](N)C(=O)N2[C@H]1C(=O)O [6-APA, 6-Aminopenicillanic acid]	<1 % of total w/w	<1 % of total w/w	0 % of total w/w	0 % of total w/w	0 % of total w/w	negligible	around 2%
